In patent publication US9169199B2, “Cycloalkyl guanidine F1F0-ATPase inhibitors and therapeutic uses thereof” (Lycera Corporation, priority 2010, dated 2015):

Assays:
F1F0-ATPase = biological target: T1, F1F0-ATPase (Bos taurus, UniProt P13621); assay: Inhibition of ATP synthesis by the F1F0-ATPase; type: biochemical
T1 construct: from tissue
Description: (§1) Compounds in Example 4 above were tested for activity against F1F0-ATPase by measuring ATP synthesis. In addition, the compounds were assessed for cytotoxicity in Ramos cells. Inhibition of ATP synthesis by the F1F0-ATPase and cytotoxicity in Ramos cells were measured according to the procedures described in K. M. Johnson et al. Chemistry & Biology 2005, 12, 485-496.

Ramos cells = assay: Cytotoxicity in Ramos cells; type: cell-based; conditions: Homo sapiens, read-out: Ramos cell EC50
Description: as §1

IC50 (F1F0-ATPase) [µM] | Structure (SMILES) | EC50 (Ramos cells) [µM]
< 10 | O=C(/N=C(/Nc1cc(F)cc(Cl)c1)N[C@H]1CC[C@H](O)CC1)c1ccc(F)c(F)c1 [Compound 6] | < 10
< 10 | O=C(/N=C(/Nc1ccccc1C1CC1)N[C@H]1CC[C@H](O)CC1)c1ccc(C(F)(F)F)cc1 [Compound 21] | < 10
< 10 | CC(C)(C)CN/C(=N/C(=O)c1ccc(F)c(F)c1)N[C@H]1CC[C@H](Nc2ncccn2)CC1 [Compound 138] | < 10
< 10 | CCOC(=O)N[C@H]1CC[C@H](N/C(=N/C(=O)c2ccc(F)c(F)c2)Nc2ccc(F)cc2C2CC2)CC1 [Compound 98] | < 10
> 10 | O=C(/N=C(/NCc1ccc(F)cc1Cl)N[C@H]1CC[C@H](O)CC1)c1ccc(F)c(F)c1 [Compound 43] | > 10
< 10 | O=C(/N=C(/Nc1cc(F)cc(Cl)c1)N[C@H]1CC[C@@H](Nc2ncccn2)CC1)c1ccc(F)c(F)c1 [Compound 120] | < 10
< 10 | CCOC(=O)N[C@H]1CC[C@H](N/C(=N/C(=O)c2ccc(F)c(F)c2)Nc2cc(F)cc(Cl)c2)CC1 [Compound 10] | < 10
< 10 | CS(=O)(=O)N[C@H]1CC[C@H](N/C(=N\C(=O)c2ccc(F)c(F)c2)Nc2cccc(C(F)(F)F)c2)CC1 [Compound 3] | < 10
< 10 | CCOC(=O)NC1CCC(N/C(=N\C(=O)c2ccc(OC)cc2)Nc2cc(F)cc(Cl)c2)CC1 (centres unmarked) [Compound 152] | < 10
> 10 | CCOC(=O)N[C@H]1CC[C@H](N/C(=N\C(=O)c2ccc(F)c(F)c2)NC(C)(C)C(F)(F)F)CC1 [Compound 105] | > 10
> 10 | O=C(/N=C(/Nc1cccc(Cl)c1)N[C@H]1CC[C@H](O)CC1)c1cccc(Cl)c1 [Compound 25] | < 10
< 10 | O=C(Cc1ccc(Cl)cc1)/N=C(\Nc1cc(F)cc(Cl)c1)N[C@H]1CC[C@H](O)CC1 [Compound 71] | > 10
> 10 | O=C(/N=C(/NCc1ccc(F)cc1F)N[C@H]1CC[C@H](O)CC1)c1ccc(F)c(F)c1 [Compound 41] | > 10
> 10 | O=C(/N=C(/NCc1ccc(F)c(Cl)c1)N[C@H]1CC[C@H](O)CC1)c1ccc(F)c(F)c1 [Compound 44] | < 10
< 10 | CC1CCC(N/C(=N/C(=O)c2ccc(F)c(F)c2)N[C@H]2CC[C@H](Nc3ncccn3)CC2)CC1 (some centres unmarked) [Compound 86] | < 10
< 10 | CCOC(=O)N[C@H]1CC[C@H](N/C(=N\C(=O)c2ccc(F)c(F)c2)Nc2cccc(Cl)c2F)CC1 [Compound 82] | < 10
< 10 | CCOC(=O)NC1CCC(N/C(=N\C(=O)c2cccc(C)c2)Nc2cc(F)cc(Cl)c2)CC1 (centres unmarked) [Compound 159] | < 10
> 10 | N[C@H]1CC[C@H](N/C(=N/C(=O)c2ccc(F)c(F)c2)Nc2cccc(C(F)(F)F)c2)CC1 [Compound 13] | < 10
> 10 | CC(C)(C)N/C(=N/C(=O)c1ccc(F)c(F)c1)N[C@H]1CC[C@H](O)CC1 [Compound 108] | > 10
< 10 | O=C(/N=C(/Nc1cccc(Cl)c1)N[C@H]1CC[C@H](Nc2ccccn2)CC1)c1ccc(F)c(F)c1 [Compound 88] | < 10
< 10 | CC(C)(C)CN/C(=N/C(=O)c1ccc(Cl)c(F)c1)N[C@H]1CC[C@H](Nc2ncccn2)CC1 [Compound 144] | < 10
< 10 | O=C(/N=C(/Nc1cccc(C(F)(F)F)c1)N[C@H]1CC[C@H](O)CC1)c1cccc(C(F)(F)F)c1 [Compound 30] | < 10

IC50 (F1F0-ATPase) [µM] | Structure (SMILES) | EC50 (Ramos cells) [µM]
< 10 | O=C(/N=C(/Nc1cc(F)cc(Cl)c1)N[C@H]1CC[C@H](Nc2cnccn2)CC1)c1ccc(F)c(F)c1 [Compound 117] | < 10
< 10 | CCOC(=O)N[C@H]1CC[C@H](N/C(=N\C(=O)c2ccc(C(F)(F)F)cc2)Nc2cccc(Cl)c2)CC1 [Compound 18] | < 10
< 10 | O=C(/N=C(/Nc1cccc(Cl)c1)N[C@H]1CC[C@H](Nc2ncccn2)CC1)c1ccc(F)c(F)c1 [Compound 20] | < 10
> 10 | O=C(/N=C(/Nc1cc(F)cc(Cl)c1)N[C@H]1CC[C@@H](C(=O)O)CC1)c1ccc(F)c(F)c1 [Compound 99] | > 10
> 10 | O=C(/N=C(/NCc1cccc(C(F)(F)F)c1)N[C@H]1CC[C@H](O)CC1)c1ccc(F)c(F)c1 [Compound 33] | < 10
< 10 | CCOC(=O)N[C@H]1CC[C@H](N/C(=N\C(=O)c2ccc(F)c(F)c2)NCc2cc(F)cc(F)c2)CC1 [Compound 59] | < 10
< 10 | CCOC(=O)N[C@H]1CC[C@H](N/C(=N\C(=O)c2ccc(F)c(F)c2)NC2CCC(C)CC2)CC1 (some centres unmarked) [Compound 77] | < 10
> 10 | O=C(/N=C(/NCc1cccc(F)c1F)N[C@H]1CC[C@H](O)CC1)c1ccc(F)c(F)c1 [Compound 40] | > 10
< 10 | CCOC(=O)N[C@H]1CC[C@H](N/C(=N\C(=O)c2ccc(F)c(F)c2)NCc2cc(F)ccc2F)CC1 [Compound 55] | < 10
< 10 | O=C(/N=C(/Nc1cc(F)cc(Cl)c1)NC1CCCC(Nc2ncccn2)C1)c1ccc(F)c(F)c1 (centres unmarked) [Compound 124] | < 10
< 10 | CC(C)(C)CN/C(=N/C(=O)c1ccc(F)c(F)c1)N[C@H]1CC[C@H](NC(=O)c2cccs2)CC1 [Compound 141] | < 10
< 10 | O=C(/N=C(/Nc1cccc(Cl)c1F)N[C@H]1CC[C@H](O)CC1)c1ccc(C(F)(F)F)cc1 [Compound 69] | < 10
< 10 | COc1ccc(C(=O)/N=C(/Nc2cc(F)cc(Cl)c2)NC2CCC(NC(=O)c3ccccc3)CC2)cc1 (centres unmarked) [Compound 154] | < 10
< 10 | CCOC(=O)N[C@H]1CC[C@H](N/C(=N\C(=O)c2ccc(F)c(F)c2)NC2CCCCC2)CC1 [Compound 76] | > 10
< 10 | O=C(/N=C(/Nc1cc(F)cc(Cl)c1)NC1CCC(NC(=O)c2cccnc2)CC1)c1ccc(F)c(F)c1 (centres unmarked) [Compound 169] | < 10
> 10 | N[C@H]1CC[C@H](N/C(=N/C(=O)c2ccc(F)c(F)c2)Nc2cc(F)cc(Cl)c2)CC1 [Compound 12] | < 10
< 10 | CCOC(=O)N[C@H]1CC[C@H](N/C(=N\C(=O)c2ccc(F)c(F)c2)NC2CCC(F)(F)CC2)CC1 [Compound 95] | > 10
< 10 | CCOC(=O)N[C@H]1CC[C@H](N/C(=N\C(=O)c2ccc(F)c(F)c2)NCc2cccc(F)c2)CC1 [Compound 54] | < 10
< 10 | CCOC(=O)N[C@H]1CC[C@H](N/C(=N\C(=O)c2ccc(F)c(F)c2)NCc2ccc(F)cc2Cl)CC1 [Compound 60] | < 10
< 10 | O=C(/N=C(/Nc1cc(F)cc(Cl)c1)N[C@H]1CC[C@H](NC(=O)N2CCCC2)CC1)c1ccc(F)c(F)c1 [Compound 137] | < 10
< 10 | CCOC(=O)N[C@H]1CC[C@H](N/C(=N\C(=O)c2ccc(F)c(F)c2)NCc2ccccc2Cl)CC1 [Compound 47] | < 10
